Test results: patent US10822348B2, “Inhibitors of Bruton's tyrosine kinase and methods of their use” (JANSSEN PHARMACEUTICA NV, priority 2015, dated 2020)

Target: unphosphorylated-BTK kinase domain (UP-BTK), GST-tagged human BTK (389-659aa) (Homo sapiens (Human), UniProt Q06187)
Assay: BTK kinase Lanthascreen binding assay
Method: BTK Kinase Lanthascreen Binding Assay:
A BTK kinase lanthascreen binding assay monitors compound binding to unphosphorylated-BTK kinase domain (UP-BTK), by competing with a fluorescent labeled tracer. […] Data were analyzed using Xlfit™ version 5.3 from ID Business Solutions (Guildford), Microsoft Excel add-in. pIC50 refers to the negative log of the IC50 in molar.

[1] = negative log of the IC50 in molar, 60 minutes incubation with 50 nM Tracer 236

Sequence of unphosphorylated-BTK kinase domain (UP-BTK), GST-tagged human BTK (389-659aa) (Q06187 389-659): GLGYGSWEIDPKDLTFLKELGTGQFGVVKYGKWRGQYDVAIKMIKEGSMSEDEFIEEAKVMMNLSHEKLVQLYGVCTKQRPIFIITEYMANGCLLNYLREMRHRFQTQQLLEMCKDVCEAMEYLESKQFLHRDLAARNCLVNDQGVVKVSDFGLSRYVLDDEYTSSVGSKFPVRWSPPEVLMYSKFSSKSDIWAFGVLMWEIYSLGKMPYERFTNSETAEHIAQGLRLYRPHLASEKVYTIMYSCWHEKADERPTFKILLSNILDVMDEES

Compound | BTK_I_binding pIC50 [1] | further results
C=CC(=O)N1CCC[C@@H](NC(=O)c2sc3nccc4c3c2NC(=O)N4c2ccc(OC3CCOCC3)cc2C)C1 (single isomer, unassigned) [Example 742, (R)—N-(1-Acryloylpiperidin-3-yl)-5-(*S)-(2-methyl-4-((tetrahydro-2H-pyran-4-yl)oxy)phenyl)-4-oxo-4,5-dihydro-3H-1-thia-3,5,8-triazaacenaphthylene-2-carboxamide] | 5.8 | 
CCC(=O)N1CCC[C@@H](NC(=O)c2sc3nccc4c3c2NC(=O)N4c2cnc(CC(C)C)cc2C)C1 (single isomer, unassigned) [Example 765, (R)-5-(*S)-(6-Isobutyl-4-methylpyridin-3-yl)-4-oxo-N-(1-propionylpiperidin-3-yl)-4,5-dihydro-3H-1-thia-3,5,8-triazaacenaphthylene-2-carboxamide] | 6.5 | 
C=CC(=O)N1CCC[C@@H](NC(=O)c2sc3nccc4c3c2NC(=O)N4c2cnc(OCC(C)C)cc2C)C1 (single isomer, unassigned) [Example 766, (R)—N-(1-Acryloylpiperidin-3-yl)-5-(*S)-(6-isobutoxy-4-methylpyridin-3-yl)-4-oxo-4,5-dihydro-3H-1-thia-3,5,8-triazaacenaphthylene-2-carboxamide] | 8.2 | 
C=CC(=O)N1CCC[C@@H](NC(=O)c2sc3nccc4c3c2NC(=O)N4c2cnc(OCC(C)C)cc2C)C1 (single isomer, unassigned) [Example 767, (R)—N-(1-Acryloylpiperidin-3-yl)-5-(*R)-(6-isobutoxy-4-methylpyridin-3-yl)-4-oxo-4,5-dihydro-3H-1-thia-3,5,8-triazaacenaphthylene-2-carboxamide] | <6 | 
C=CC(=O)N1CC[C@@H](NC(=O)c2sc3nccc4c3c2NC(=O)N4c2cnc(OC3CCCC3)cc2C)C1 (single isomer, unassigned) [Example 776, (R)—N-(1-Acryloylpyrrolidin-3-yl)-5-(*S)-(6-(cyclopentyloxy)-4-methylpyridin-3-yl)-4-oxo-4,5-dihydro-3H-1-thia-3,5,8-triazaacenaphthylene-2-carboxamide] | 8.1 | 
C=CC(=O)N1CC[C@@H](NC(=O)c2sc3nccc4c3c2NC(=O)N4c2cnc(OCC(C)C)cc2C)C1 (single isomer, unassigned) [Example 779, (R)—N-(1-Acryloylpyrrolidin-3-yl)-5-(*S)-(6-isobutoxy-4-methylpyridin-3-yl)-4-oxo-4,5-dihydro-3H-1-thia-3,5,8-triazaacenaphthylene-2-carboxamide] | 8.0 | 
Cc1cc(OC(C)C)ncc1N1C(=O)Nc2c(C(=O)N[C@@H]3CCNC3)sc3nccc1c23 (single isomer, unassigned) [Example 958, (R)-5-(*S)-(6-Isopropoxy-4-methylpyridin-3-yl)-4-oxo-N-(pyrrolidin-3-yl)-4,5-dihydro-3H-1-thia-3,5,8-triazaacenaphthylene-2-carboxamide] |  | BTK_I_binding pIC50 (unphosphorylated-BTK kinase domain, Lanthascreen, 60 minutes incubation, pIC50 = negative log of IC50 in molar): <6
C=CC(=O)N[C@@H]1COC[C@@H]1NC(=O)c1sc2nccc3c2c1NC(=O)N3c1cnc(Oc2ccccc2)cc1C (stereo in doubt) [Example 752, N-((*3R,*4S)-4-Acrylamidotetrahydrofuran-3-yl)-5-(*S)-(4-methyl-6-phenoxypyridin-3-yl)-4-oxo-4,5-dihydro-3H-1-thia-3,5,8-triazaacenaphthylene-2-carboxamide] | 6.4 | 
C=CC(=O)N1C[C@@H](F)C[C@@H](NC(=O)c2sc3nccc4c3c2NC(=O)N4c2ccc(Oc3ccccc3)cc2C)C1 [Example 3, N-((3R,5S)-1-Acryloyl-5-fluoropiperidin-3-yl)-5-(2-methyl-4-phenoxyphenyl)-4-oxo-4,5-dihydro-3H-1-thia-3,5,8-triazaacenaphthylene-2-carboxamide] |  | IC50 (read-out: BTK_I_binding pIC50 (converted)): 12.6 nM
O=C(CCCC(=O)NCCCOCCOCCOCCCNC(=O)CCCC[C@H]1SC[C@H]2NC(=O)N[C@H]21)NC/C=C/C(=O)N1CCCC(NC(=O)c2sc3nccc4c3c2NC(=O)N4c2ccc(Oc3ccccc3)cn2)C1 (stereo partly drawn) [Example 780, N^1-(15-oxo-19-((3aR,4R,6aS)-2-oxohexahydro-1H-thieno[3,4-d]imidazol-4-yl)-4,7,10-trioxa-14-azanonadecyl)-N^5-((E)-4-oxo-4-(3-(4-oxo-5-(5-phenoxypyridin-2-yl)-4,5-dihydro-3H-1-thia-3,5,8-triazaacenaphthylene-2-carboxamido)piperidin-1-yl)but-2-en-1-yl)glutaramide] | 6.3 | 

Now from value to molecule, other results behind:

BTK_I_binding pIC50 [1] | Compound | further results
7.5 | C=CC(=O)N1CC[C@@H](NC(=O)c2sc3nccc4c3c2NC(=O)N4c2cnc(CC(C)C)cc2C)C1 (single isomer, unassigned) [Example 747, (R)—N-(1-Acryloylpyrrolidin-3-yl)-5-(*S)-(6-isobutyl-4-methylpyridin-3-yl)-4-oxo-4,5-dihydro-3H-1-thia-3,5,8-triazaacenaphthylene-2-carboxamide] | 
<6 | C=CC(=O)N1CC[C@@H](NC(=O)c2sc3nccc4c3c2NC(=O)N4c2cnc(CC(C)C)cc2C)C1 (single isomer, unassigned) [Example 756, (R)—N-(1-Acryloylpyrrolidin-3-yl)-5-(*R)-(6-isobutyl-4-methylpyridin-3-yl)-4-oxo-4,5-dihydro-3H-1-thia-3,5,8-triazaacenaphthylene-2-carboxamide] | 
6.4 | C=CC(=O)N1CCC[C@@H](NC(=O)c2sc3nccc4c3c2NC(=O)N4c2ccc(CC(C)C)nc2C)C1 (single isomer, unassigned) [Example 792, (R)—N-(1-Acryloylpiperidin-3-yl)-5-(*S)-(6-isobutyl-2-methylpyridin-3-yl)-4-oxo-4,5-dihydro-3H-1-thia-3,5,8-triazaacenaphthylene-2-carboxamide] | 
<6 | C=CC(=O)N1CCC[C@@H](NC(=O)c2sc3nccc4c3c2NC(=O)N4c2ccc(CC(C)C)nc2C)C1 (single isomer, unassigned) [Example 815, (R)—N-(1-Acryloylpiperidin-3-yl)-5-(*R)-(6-isobutyl-2-methylpyridin-3-yl)-4-oxo-4,5-dihydro-3H-1-thia-3,5,8-triazaacenaphthylene-2-carboxamide] | 
8.1 | C=CC(=O)N[C@H]1COC[C@H]1NC(=O)c1sc2nccc3c2c1NC(=O)N3c1cnc(Oc2ccccc2)cc1C (stereo in doubt) [Example 745, N-((3*S,4*R)-4-Acrylamidotetrahydrofuran-3-yl)-5-(*S)-(4-methyl-6-phenoxypyridin-3-yl)-4-oxo-4,5-dihydro-3H-1-thia-3,5,8-triazaacenaphthylene-2-carboxamide] | 
